Assay results taken from ChEMBL document CHEMBL5724914, “Linking interpersonal differences in gut microbiota composition and drug biotransformation activity” (2024).

test: (§1) The drug is tested on Z-014 corresponding to rat gut metagenome with ENA study accession number: PRJEB37062 and ENA sample accession number: ERS12561814 for biotransformation under anaerobic condition. The drug concentrations were measured over 9 timepoints collected between 0 and 24 hours of incubation by liquid-chromatography-coupled mass spectrometry (LC–MS); details: 2 µM
Further: call rule not given here.

| Structure (SMILES) | Bacterial Biotransformation |
| --- | --- |
| OCCN1CCN(CCCN2c3ccccc3Sc3ccc(C(F)(F)F)cc32)CC1 [FLUPHENAZINE] | Compound NOT metabolized |
| CCCCCCOC(=O)/N=C(/N)c1ccc(NCc2nc3cc(C(=O)N(CCC(=O)OCC)c4ccccn4)ccc3n2C)cc1.CS(=O)(=O)O [DABIGATRAN ETEXILATE MESYLATE] | Compound NOT metabolized |

details: human gut metagenome, 24 h, 2 µM

| Structure (SMILES) | Bacterial Biotransformation |
| --- | --- |
| OCCN1CCN(CCCN2c3ccccc3Sc3ccc(C(F)(F)F)cc32)CC1 [FLUPHENAZINE] | Compound metabolized |
| CCCCCCOC(=O)/N=C(/N)c1ccc(NCc2nc3cc(C(=O)N(CCC(=O)OCC)c4ccccn4)ccc3n2C)cc1.CS(=O)(=O)O [DABIGATRAN ETEXILATE MESYLATE] | Compound NOT metabolized |

test: as §1, with “on WLS-220” for “on Z-014”, “to human” for “to rat”, “number: ERS12561769” for “number: ERS12561814”; details: 2 µM

| Structure (SMILES) | Bacterial Biotransformation |
| --- | --- |
| OCCN1CCN(CCCN2c3ccccc3Sc3ccc(C(F)(F)F)cc32)CC1 [FLUPHENAZINE] | Compound metabolized |

test: as §1, with “on Z-017” for “on Z-014”, “to mouse” for “to rat”, “number: ERS12561816” for “number: ERS12561814”; details: 2 µM

| Structure (SMILES) | Bacterial Biotransformation |
| --- | --- |
| OCCN1CCN(CCCN2c3ccccc3Sc3ccc(C(F)(F)F)cc32)CC1 [FLUPHENAZINE] | Compound NOT metabolized |
| CCCCCCOC(=O)/N=C(/N)c1ccc(NCc2nc3cc(C(=O)N(CCC(=O)OCC)c4ccccn4)ccc3n2C)cc1.CS(=O)(=O)O [DABIGATRAN ETEXILATE MESYLATE] | Compound NOT metabolized |

test: as §1, with “on WLS-073” for “on Z-014”, “to human” for “to rat”, “number: ERS12561749” for “number: ERS12561814”; details: 2 µM

| Structure (SMILES) | Bacterial Biotransformation |
| --- | --- |
| OCCN1CCN(CCCN2c3ccccc3Sc3ccc(C(F)(F)F)cc32)CC1 [FLUPHENAZINE] | Compound metabolized |

details: human gut metagenome, 24 h, 2 µM; remark: another data set of the same source

| Structure (SMILES) | Bacterial Biotransformation |
| --- | --- |
| OCCN1CCN(CCCN2c3ccccc3Sc3ccc(C(F)(F)F)cc32)CC1 [FLUPHENAZINE] | Compound metabolized |
| CCCCCCOC(=O)/N=C(/N)c1ccc(NCc2nc3cc(C(=O)N(CCC(=O)OCC)c4ccccn4)ccc3n2C)cc1.CS(=O)(=O)O [DABIGATRAN ETEXILATE MESYLATE] | Compound NOT metabolized |

details: human gut metagenome, 24 h, 2 µM; remark: another data set of the same source

| Structure (SMILES) | Bacterial Biotransformation |
| --- | --- |
| OCCN1CCN(CCCN2c3ccccc3Sc3ccc(C(F)(F)F)cc32)CC1 [FLUPHENAZINE] | Compound metabolized |
| CCCCCCOC(=O)/N=C(/N)c1ccc(NCc2nc3cc(C(=O)N(CCC(=O)OCC)c4ccccn4)ccc3n2C)cc1.CS(=O)(=O)O [DABIGATRAN ETEXILATE MESYLATE] | Compound NOT metabolized |

details: human gut metagenome, 24 h, 2 µM; remark: another data set of the same source

| Bacterial Biotransformation | Structure (SMILES) |
| --- | --- |
| Compound NOT metabolized | CCCCCCOC(=O)/N=C(/N)c1ccc(NCc2nc3cc(C(=O)N(CCC(=O)OCC)c4ccccn4)ccc3n2C)cc1.CS(=O)(=O)O [DABIGATRAN ETEXILATE MESYLATE] |

test: as §1, with “on WLS-310” for “on Z-014”, “to human” for “to rat”, “number: ERS12561785” for “number: ERS12561814”; details: 2 µM

| Structure (SMILES) | Bacterial Biotransformation |
| --- | --- |
| OCCN1CCN(CCCN2c3ccccc3Sc3ccc(C(F)(F)F)cc32)CC1 [FLUPHENAZINE] | Compound metabolized |

details: human gut metagenome, 24 h, 2 µM; remark: another data set of the same source

| Structure (SMILES) | Bacterial Biotransformation |
| --- | --- |
| OCCN1CCN(CCCN2c3ccccc3Sc3ccc(C(F)(F)F)cc32)CC1 [FLUPHENAZINE] | Compound metabolized |

test: as §1, with “Z-019” for “Z-014”, “ERS12561818” for “ERS12561814”; details: 2 µM

| Bacterial Biotransformation | Structure (SMILES) |
| --- | --- |
| Compound NOT metabolized | CCCCCCOC(=O)/N=C(/N)c1ccc(NCc2nc3cc(C(=O)N(CCC(=O)OCC)c4ccccn4)ccc3n2C)cc1.CS(=O)(=O)O [DABIGATRAN ETEXILATE MESYLATE] |

test: as §1, with “on WLS-007” for “on Z-014”, “to human” for “to rat”, “number: ERS12561742” for “number: ERS12561814”; details: 2 µM

| Structure (SMILES) | Bacterial Biotransformation |
| --- | --- |
| OCCN1CCN(CCCN2c3ccccc3Sc3ccc(C(F)(F)F)cc32)CC1 [FLUPHENAZINE] | Compound NOT metabolized |

test: as §1, with “on Z-013” for “on Z-014”, “to rabbit” for “to rat”, “number: ERS12561813” for “number: ERS12561814”; details: 2 µM

| Structure (SMILES) | Bacterial Biotransformation |
| --- | --- |
| OCCN1CCN(CCCN2c3ccccc3Sc3ccc(C(F)(F)F)cc32)CC1 [FLUPHENAZINE] | Compound NOT metabolized |
| CCCCCCOC(=O)/N=C(/N)c1ccc(NCc2nc3cc(C(=O)N(CCC(=O)OCC)c4ccccn4)ccc3n2C)cc1.CS(=O)(=O)O [DABIGATRAN ETEXILATE MESYLATE] | Compound NOT metabolized |

test: as §1, with “on WLS-038” for “on Z-014”, “to human” for “to rat”, “number: ERS12561745” for “number: ERS12561814”; details: 2 µM

| Structure (SMILES) | Bacterial Biotransformation |
| --- | --- |
| OCCN1CCN(CCCN2c3ccccc3Sc3ccc(C(F)(F)F)cc32)CC1 [FLUPHENAZINE] | Compound metabolized |

details: human gut metagenome, 24 h, 2 µM; remark: another data set of the same source

| Structure (SMILES) | Bacterial Biotransformation |
| --- | --- |
| OCCN1CCN(CCCN2c3ccccc3Sc3ccc(C(F)(F)F)cc32)CC1 [FLUPHENAZINE] | Compound NOT metabolized |

test: as §1, with “on Z-016” for “on Z-014”, “to mouse” for “to rat”, “number: ERS12561815” for “number: ERS12561814”; details: 2 µM

| Structure (SMILES) | Bacterial Biotransformation |
| --- | --- |
| OCCN1CCN(CCCN2c3ccccc3Sc3ccc(C(F)(F)F)cc32)CC1 [FLUPHENAZINE] | Compound NOT metabolized |
| CCCCCCOC(=O)/N=C(/N)c1ccc(NCc2nc3cc(C(=O)N(CCC(=O)OCC)c4ccccn4)ccc3n2C)cc1.CS(=O)(=O)O [DABIGATRAN ETEXILATE MESYLATE] | Compound NOT metabolized |

details: human gut metagenome, 24 h, 2 µM; remark: another data set of the same source

| Structure (SMILES) | Bacterial Biotransformation |
| --- | --- |
| OCCN1CCN(CCCN2c3ccccc3Sc3ccc(C(F)(F)F)cc32)CC1 [FLUPHENAZINE] | Compound metabolized |

details: human gut metagenome, 24 h, 2 µM; remark: another data set of the same source

| Structure (SMILES) | Bacterial Biotransformation |
| --- | --- |
| OCCN1CCN(CCCN2c3ccccc3Sc3ccc(C(F)(F)F)cc32)CC1 [FLUPHENAZINE] | Compound metabolized |
| CCCCCCOC(=O)/N=C(/N)c1ccc(NCc2nc3cc(C(=O)N(CCC(=O)OCC)c4ccccn4)ccc3n2C)cc1.CS(=O)(=O)O [DABIGATRAN ETEXILATE MESYLATE] | Compound NOT metabolized |

test: as §1, with “Z-008” for “Z-014”, “to” for “to rat gut”, “ERS12561808” for “ERS12561814”; details: 2 µM

| Structure (SMILES) | Bacterial Biotransformation |
| --- | --- |
| OCCN1CCN(CCCN2c3ccccc3Sc3ccc(C(F)(F)F)cc32)CC1 [FLUPHENAZINE] | Compound NOT metabolized |
| CCCCCCOC(=O)/N=C(/N)c1ccc(NCc2nc3cc(C(=O)N(CCC(=O)OCC)c4ccccn4)ccc3n2C)cc1.CS(=O)(=O)O [DABIGATRAN ETEXILATE MESYLATE] | Compound NOT metabolized |

test: as §1, with “on WLS-086” for “on Z-014”, “to human” for “to rat”, “number: ERS12561752” for “number: ERS12561814”; details: 2 µM

| Structure (SMILES) | Bacterial Biotransformation |
| --- | --- |
| OCCN1CCN(CCCN2c3ccccc3Sc3ccc(C(F)(F)F)cc32)CC1 [FLUPHENAZINE] | Compound metabolized |
